Experimental findings from ChEMBL document CHEMBL5579854, “Targeting Relevant HDACs to Support the Survival of Cone Photoreceptors in Inherited Retinal Diseases: Identification of a Potent Pharmacological Tool with In Vitro and In Vivo Efficacy” (J Med Chem, 2024) are described below.

Usually logP stands for a log measure of how a compound divides between an organic and an aqueous phase. Usually solubility stands for the concentration that dissolves in the medium under given conditions. Low values mean little dissolved substance, high ones much dissolved substance. In general, IC50 refers to the concentration that gives 50% inhibition. One may read the inhibition as the share of the control response that was lost under treatment.

Series [1] in a line: Stability of compound at pH 7.4 measured after 24 hrs. It is filed as physicochemical. To be noted: buffer, read-out: Stability.
Series [2] can be described thus: Lipophilicity, logP of compound. It is filed as physicochemical. To be noted: octanol/water.
Series [3] in a line: Solubility of compound. It counts as physicochemical.
Series [4] concerns the target T1, Histone deacetylase 1 (Homo sapiens, UniProt Q13547). The series can be described thus: Inhibition of C-terminal 6xHis-tagged full-length recombinant human HDAC1 (1 to 482 residues) expressed in Sf9 insect cells using a fluorogenic substrate preincubated for 30 mins followed by substrate addition measured after 30 mins by fluorescence based assay.
Series [5] deals with T1, Histone deacetylase 1. The series can be described thus: Inhibition of C-terminal 6xHis-tagged full-length recombinant human HDAC1 (1 to 482 residues) expressed in Sf9 insect cells using a fluorogenic substrate preincubated for 30 mins followed by substrate addition measured after 30 mins by fluorescence based assay relative to control. Particulars: time 60.0 min.
The target of series [6] is T2, Histone deacetylase 5 (Homo sapiens, UniProt Q9UQL6). The series can be described thus: Inhibition of C-terminal His-tagged recombinant human HDAC5 catalytic domain (656 to 1122 residues) expressed in baculovirus infected Sf9 insect cells using a fluorogenic substrate preincubated for 30 mins followed by substrate addition measured after 30 mins by fluorescence based assay relative to control. Particulars: time 60.0 min.
T2 sequence (Q9UQL6 whole entry, the tested form may be a part): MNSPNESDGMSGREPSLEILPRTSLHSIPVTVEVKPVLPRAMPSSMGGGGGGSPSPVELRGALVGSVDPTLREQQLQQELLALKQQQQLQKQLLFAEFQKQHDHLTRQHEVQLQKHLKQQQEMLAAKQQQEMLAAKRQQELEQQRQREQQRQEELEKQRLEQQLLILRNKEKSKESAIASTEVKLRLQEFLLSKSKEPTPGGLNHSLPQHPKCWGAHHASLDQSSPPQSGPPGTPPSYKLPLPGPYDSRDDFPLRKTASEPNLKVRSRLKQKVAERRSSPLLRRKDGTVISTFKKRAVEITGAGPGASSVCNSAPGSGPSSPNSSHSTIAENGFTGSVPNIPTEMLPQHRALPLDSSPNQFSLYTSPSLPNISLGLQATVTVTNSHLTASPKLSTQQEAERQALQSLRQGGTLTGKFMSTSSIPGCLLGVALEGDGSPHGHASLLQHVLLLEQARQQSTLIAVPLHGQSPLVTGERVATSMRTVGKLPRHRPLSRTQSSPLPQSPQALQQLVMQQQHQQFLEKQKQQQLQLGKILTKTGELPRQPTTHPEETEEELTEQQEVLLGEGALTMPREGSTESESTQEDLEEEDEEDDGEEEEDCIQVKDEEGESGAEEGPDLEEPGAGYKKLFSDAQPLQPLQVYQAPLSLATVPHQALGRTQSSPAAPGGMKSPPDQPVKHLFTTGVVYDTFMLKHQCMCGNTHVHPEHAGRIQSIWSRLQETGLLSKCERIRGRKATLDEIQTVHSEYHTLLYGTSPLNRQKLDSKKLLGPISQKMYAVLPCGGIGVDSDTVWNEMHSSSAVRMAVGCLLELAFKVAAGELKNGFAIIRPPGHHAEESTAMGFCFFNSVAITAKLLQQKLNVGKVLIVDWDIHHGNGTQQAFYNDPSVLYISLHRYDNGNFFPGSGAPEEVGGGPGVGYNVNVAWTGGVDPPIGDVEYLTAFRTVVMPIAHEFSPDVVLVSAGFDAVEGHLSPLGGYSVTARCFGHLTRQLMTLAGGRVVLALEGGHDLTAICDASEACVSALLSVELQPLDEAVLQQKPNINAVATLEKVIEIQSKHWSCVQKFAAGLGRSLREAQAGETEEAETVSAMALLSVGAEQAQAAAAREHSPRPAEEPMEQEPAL

Series [7] deals with T2, Histone deacetylase 5. The series can be described thus: Inhibition of C-terminal His-tagged recombinant human HDAC5 catalytic domain (656 to 1122 residues) expressed in baculovirus infected Sf9 insect cells using a fluorogenic substrate preincubated for 30 mins followed by substrate addition measured after 30 mins by fluorescence based assay.
Series [8] has as its target T3, Protein deacetylase HDAC6 (Homo sapiens, UniProt Q9UBN7).
T3 sequence (Q9UBN7 whole entry): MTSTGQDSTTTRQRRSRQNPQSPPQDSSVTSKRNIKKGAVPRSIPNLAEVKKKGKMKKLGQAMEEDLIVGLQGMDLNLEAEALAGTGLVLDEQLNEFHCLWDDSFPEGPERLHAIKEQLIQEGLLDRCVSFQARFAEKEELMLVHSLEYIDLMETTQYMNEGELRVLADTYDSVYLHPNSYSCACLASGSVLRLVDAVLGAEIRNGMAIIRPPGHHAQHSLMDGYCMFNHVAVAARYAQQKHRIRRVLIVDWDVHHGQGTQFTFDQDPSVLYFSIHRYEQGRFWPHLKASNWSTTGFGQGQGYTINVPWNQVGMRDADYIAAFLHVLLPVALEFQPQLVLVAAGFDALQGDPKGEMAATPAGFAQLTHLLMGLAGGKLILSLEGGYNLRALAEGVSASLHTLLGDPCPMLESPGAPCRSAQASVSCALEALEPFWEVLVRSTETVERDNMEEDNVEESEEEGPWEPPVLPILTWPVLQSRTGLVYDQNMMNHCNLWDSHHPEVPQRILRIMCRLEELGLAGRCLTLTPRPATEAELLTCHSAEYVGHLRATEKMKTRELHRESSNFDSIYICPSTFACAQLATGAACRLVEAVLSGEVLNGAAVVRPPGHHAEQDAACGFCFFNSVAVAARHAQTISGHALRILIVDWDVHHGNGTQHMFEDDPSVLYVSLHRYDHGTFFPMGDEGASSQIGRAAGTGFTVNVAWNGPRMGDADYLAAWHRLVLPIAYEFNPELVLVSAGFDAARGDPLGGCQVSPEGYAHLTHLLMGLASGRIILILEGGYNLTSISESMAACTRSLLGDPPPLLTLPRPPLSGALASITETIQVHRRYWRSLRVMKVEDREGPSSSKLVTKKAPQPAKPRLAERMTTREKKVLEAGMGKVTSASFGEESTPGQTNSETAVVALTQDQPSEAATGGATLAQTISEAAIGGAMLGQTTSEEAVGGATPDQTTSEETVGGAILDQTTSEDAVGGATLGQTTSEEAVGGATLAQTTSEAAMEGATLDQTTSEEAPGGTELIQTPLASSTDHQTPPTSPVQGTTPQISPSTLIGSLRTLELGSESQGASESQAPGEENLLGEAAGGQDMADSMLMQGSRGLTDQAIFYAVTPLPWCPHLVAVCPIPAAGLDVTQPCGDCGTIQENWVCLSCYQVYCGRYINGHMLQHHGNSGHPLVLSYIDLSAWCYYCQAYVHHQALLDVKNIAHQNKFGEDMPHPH
The series can be described thus: Inhibition of C-terminal FLAG-tagged full-length recombinant human HDAC6 (1 to 1215 residues) expressed in Sf9 insect cells using a fluorogenic substrate preincubated for 30 mins followed by substrate addition measured after 30 mins by fluorescence based assay.

Series [9] concerns the target T4, Histone deacetylase 8 (Homo sapiens, UniProt Q9BY41).
T4 sequence (Q9BY41 whole entry): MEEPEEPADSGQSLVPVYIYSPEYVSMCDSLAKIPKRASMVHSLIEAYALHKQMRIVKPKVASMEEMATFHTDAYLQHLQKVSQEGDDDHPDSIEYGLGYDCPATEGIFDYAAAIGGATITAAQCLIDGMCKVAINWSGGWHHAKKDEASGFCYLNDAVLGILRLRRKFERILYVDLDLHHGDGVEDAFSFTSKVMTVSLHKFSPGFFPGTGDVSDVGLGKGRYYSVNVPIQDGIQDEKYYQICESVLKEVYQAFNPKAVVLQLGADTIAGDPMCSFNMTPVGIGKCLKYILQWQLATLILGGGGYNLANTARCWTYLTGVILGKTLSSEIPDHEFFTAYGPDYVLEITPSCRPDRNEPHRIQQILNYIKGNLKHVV
The series can be described thus: Inhibition of C-terminal His-tagged full-length recombinant human HDAC8 (1 to 377 residues) expressed in Sf9 insect cells using a fluorogenic substrate preincubated for 30 mins followed by substrate addition measured after 30 mins by fluorescence based assay.

Series [10] has as its target T5, Histone deacetylase 8 (Homo sapiens) (UniProt Q9BY41).
T5 sequence (whole entry): T4 sequence (Q9BY41 whole entry)
As to the kind of experiment: Inhibition of C-terminal His-tagged full-length recombinant human HDAC8 (1 to 377 residues) expressed in Sf9 insect cells using a fluorogenic substrate preincubated for 30 mins followed by substrate addition measured after 30 mins by fluorescence based assay relative to control. To be noted: time 60.0 min.

Series [11] concerns 661W. As to the kind of experiment: Effect on acetylated histone H3 level in H2O2-induced oxidative stress in mouse 661W cells at 10 uM incubated for 24 hrs followed by H2O2 treatment for 3 hrs by Western blot analysis. It counts as functional, cell-based. To be noted: time 27.0 hrs. In general terms: In western blotting, separated proteins are transferred to a membrane and probed.

Series [12] has as its system 661W. As to the kind of experiment: Effect on acetylated alpha-tubulin level in H2O2-induced oxidative stress in mouse 661W cells at 10 uM incubated for 24 hrs followed by H2O2 treatment for 3 hrs by Western blot analysis. It is filed as functional, cell-based. Particulars: time 27.0 hrs.
Series [13] relates to 661W. The series can be described thus: Cytoprotective effect against H2O2-induced oxidative stress in mouse 661W cells assessed as increase in acetylated alpha-tubulin level at 10 uM incubated for 24 hrs followed by H2O2 treatment for 3 hrs by immunofluorescence analysis. It is filed as functional, cell-based. To be noted: time 27.0 hrs.

≈ marks a conversion by molar mass, not a printed value. Calls of active or inactive are those of the source. No cut-off for these calls is given here.

T1 sequence (Q13547 whole entry, the tested form may be a part): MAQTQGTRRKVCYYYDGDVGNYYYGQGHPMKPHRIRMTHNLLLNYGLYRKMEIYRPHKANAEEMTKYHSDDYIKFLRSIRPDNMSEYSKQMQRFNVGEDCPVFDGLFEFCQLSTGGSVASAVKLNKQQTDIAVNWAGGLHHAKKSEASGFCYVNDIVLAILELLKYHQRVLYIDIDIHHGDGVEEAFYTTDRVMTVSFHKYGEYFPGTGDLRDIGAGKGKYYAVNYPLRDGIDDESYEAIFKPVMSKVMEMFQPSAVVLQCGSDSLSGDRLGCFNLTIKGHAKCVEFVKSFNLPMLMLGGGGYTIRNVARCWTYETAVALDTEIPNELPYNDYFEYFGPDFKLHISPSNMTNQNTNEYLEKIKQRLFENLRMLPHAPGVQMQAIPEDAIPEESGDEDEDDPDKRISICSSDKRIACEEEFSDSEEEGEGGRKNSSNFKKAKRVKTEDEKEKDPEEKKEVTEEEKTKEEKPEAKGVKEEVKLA

On to `CC(C)(C)OC(=O)N1CCC2(CC1)CN(Cc1ccc(C(=O)NO)cc1)c1ccccc12`, for which the remaining at 24 h in series [1] turned out to be 74%. The logP in series [2] was determined as 2.5. The same compound showed a solubility in [3] of 223 µM (≈ 97.6 µg/mL).

Compound `CC(/C=C/C(=O)NO)=C\[C@@H](C)C(=O)c1ccc(N(C)C)cc1` [TRICHOSTATIN] returned a logP in series [2] of 2.57.

As for `Cn1c2c(c3ccccc31)CN(C(=O)NCc1ccc(C(=O)NO)cc1)CC2`, the IC50 in [4] is greater than 10 µM. Besides, in [5], the inhibition came out at 41%.

With `CC1(C)c2ccccc2N(Cc2ccc(C(=O)NO)cc2)C1c1cccnc1` (stereo not drawn), the IC50 is 5.42 µM in [4], greater than 10 µM in [7], 0.0408 µM in [8] and 2.2 µM in series [9]. Also, the inhibition in series [6] came out at 14%. For the same compound, the remaining at 24 h in [1] worked out at 97%. Further, the logP in [2] came out at 2.04. The same compound yielded a solubility in series [3] of 285 µM (≈ 106 µg/mL).

In the case of `CN1CC2(CCN(Cc3ccc(C(=O)NO)cc3)CC2)c2ccccc21`, in [1], the remaining at 24 h amounted to 71%. The logP in series [2] is 2.1. The compound further gave a solubility in series [3] of 97 µM (≈ 34.1 µg/mL).

On to `O=C(NO)c1ccc(NC(=O)N2CCc3c(c4ccccc4n3Cc3ccccc3)C2)cc1`, for which the remaining at 24 h in [1] came out at 90%. Further, in [2], the lipophilicity (logP) turned out to be 3.99. The compound further yielded a solubility in [3] of 141 µM (≈ 62.1 µg/mL).

`CCN(CC)Cc1ccc(Cn2c3c(c4ccccc42)CN(C(=O)NCc2ccc(C(=O)NO)cc2)CC3)cc1`: the remaining at 24 h in series [1] turned out to be 92%. This compound returned a logP in series [2] of 4.08. The solubility in series [3] came to 295 µM (≈ 159 µg/mL).

Take `Cn1c2c(c3ccccc31)CN(C(=O)OCc1ccc(C(=O)NO)cc1)CC2`: the remaining at 24 h in series [1] was found to be 90%. The logP in [2] amounted to 3.2. Further, the inhibition in series [10] worked out at 38%. For the same compound, the solubility in series [3] turned out to be 227 µM (≈ 86.1 µg/mL). The IC50 in [9] is greater than 10 µM.

In the case of `O=C(NO)c1ccc(COC(=O)N2CCC3(CC2)CN(Cc2ccccc2)c2ccccc23)cc1`, in series [1], the remaining at 24 h came to 64%. The compound also registered a log partition coefficient (logP) in [2] of 4.2. The compound further came in with a solubility in series [3] of 156 µM (≈ 73.6 µg/mL).

For the compound `Cn1c2c(c3ccccc31)CN(Cc1ccc(C(=O)NO)cc1)CC2`, the IC50 in [4] was greater than 10 µM. In addition, the inhibition in [5] was found to be 43%. Besides, in [1], the remaining at 24 h came to 94%. The same compound had a logP in series [2] of 1.97. In addition, in series [3], the solubility was determined as 200 µM (≈ 67.1 µg/mL).

Turning to `O=C(NO)c1ccc(CNC(=S)N2CCc3c(c4ccccc4n3Cc3ccccc3)C2)cc1`, the IC50 in [8] is greater than 10 µM.

Take `CN1CCc2c(c3ccccc3n2Cc2ccc(C(=O)NO)cc2)C1` [TUBASTATIN A]: the result in series [11] and in series [12] was inactive. Also, the remaining at 24 h in [1] came to 75%. The log partition coefficient (logP) in [2] came to 2.02. In [13], the outcome was Active. Further, in series [3], the concentration in solution (solubility) came to 231 µM (≈ 77.5 µg/mL).
